Assay results published in patent publication US8470837B2, “MAPK/ERK kinase inhibitors” (Takeda Pharmaceutical Company Limted, priority 2006, dated 2013).

Each molecule was assayed against MEK1 (Homo sapiens, UniProt Q02750, DEL30-49/S218E/S222D) (assay: MEK1 inhibition, fluorescence polarization assay with IMAP beads (ERK1 / FI-Erktide coupled)).
Chain of MEK1 (Q02750 with tags, fused parts or gaps DEL30-49/S218E/S222D): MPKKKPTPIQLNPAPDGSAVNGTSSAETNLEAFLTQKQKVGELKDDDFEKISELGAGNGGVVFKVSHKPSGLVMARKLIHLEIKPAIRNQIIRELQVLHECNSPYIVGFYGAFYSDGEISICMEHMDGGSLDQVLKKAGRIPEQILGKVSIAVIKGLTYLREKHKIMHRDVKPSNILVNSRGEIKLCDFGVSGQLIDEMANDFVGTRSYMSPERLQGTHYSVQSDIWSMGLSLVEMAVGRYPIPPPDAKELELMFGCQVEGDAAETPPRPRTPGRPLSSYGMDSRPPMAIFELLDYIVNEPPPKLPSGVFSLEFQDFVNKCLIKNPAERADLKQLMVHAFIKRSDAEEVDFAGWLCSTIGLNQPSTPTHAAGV

Structure (SMILES)	IC50 [µM]
Cn1c(=O)cc(Nc2ccc(I)cc2F)c2c(=O)n(Cc3ccccc3)cnc21 [Example 42, 3-Benzyl-5-(2-fluoro-4-iodophenylamino)-8-methylpyrido[2,3-d]pyrimidine-4,7(3H,8H)-dione]	≥ 0.016
Cc1c(Nc2ccccc2F)c2c(=O)n(CCO)cnc2n(C)c1=O [Example 15, 5-(2-Fluorophenylamino)-3-(2-hydroxyethyl)-6,8-dimethylpyrido[2,3-d]pyrimidine-4,7(3H,8H)-dione]	≥ 0.016
Cn1c(=O)c(Cl)c(Nc2ccc(Br)cc2F)c2c(=O)n(CCCO)cnc21 [Example 34, 5-(4-Bromo-2-fluorophenylamino)-6-chloro-3-(3-hydroxypropyl)-8-methylpyrido[2,3-d]pyrimidine-4,7(3H,8H)-dione]	0.005 to 0.015
Cn1c(=O)cc(Nc2ccc(I)cc2F)c2c(=O)n(CCCO)cnc21 [Example 31, 5-(2-Fluoro-4-iodophenylamino)-3-(3-hydroxypropyl)-8-methylpyrido[2,3-d]pyrimidine-4,7(3H,8H)-dione]	≤ 0.005
Cn1c(=O)c(Cl)c(Nc2ccc(I)cc2F)c2c(=O)n(C[C@H](O)CO)cnc21 [Example 7, (S)-6-Chloro-3-(2,3-dihydroxypropyl)-5-(2-fluoro-4-iodophenylamino)-8-methylpyrido[2,3-d]pyrimidine-4,7(3H,8H)-dione]	≤ 0.005
Cn1c(=O)c(F)c(Nc2ccc(I)cc2F)c2c(=O)n(C[C@@H](O)CO)cnc21 [Example 18, (R)-3-(2,3-Dihydroxypropyl)-6-fluoro-5-(2-fluoro-4-iodophenylamino)-8-methylpyrido[2,3-d]pyrimidine-4,7(3H,8H)-dione]	≤ 0.005
Cc1c(Nc2ccc(Br)cc2F)c2c(=O)n(CCO)cnc2n(C)c1=O [Example 11, 5-(4-Bromo-2-fluorophenylamino)-3-(2-hydroxyethyl)-6,8-dimethylpyrido[2,3-d]pyrimidine-4,7(3H,8H)-dione]	≥ 0.016
COC(=O)Cn1cnc2c(c(Nc3ccc(I)cc3F)cc(=O)n2C)c1=O [Example 3, Methyl 2-(5-(2-fluoro-4-iodophenylamino)-8-methyl-4,7-dioxo-7,8-dihydropyrido[2,3-d]pyrimidin-3(4H)-yl)acetate]	≥ 0.016
Cc1c(Nc2ccc(I)cc2F)c2c(=O)n(C(CO)CO)cnc2n(C)c1=O [Example 43, 3-(1,3-Dihydroxypropan-2-yl)-5-(2-fluoro-4-iodophenylamino)-6,8-dimethylpyrido[2,3-d]pyrimidine-4,7(3H,8H)-dione]	0.005 to 0.015
C#Cc1ccc(Nc2c(C)c(=O)n(C)c3ncn(C[C@H](O)CO)c(=O)c23)c(F)c1 [Example 44, (S)-3-(2,3-Dihydroxypropyl)-5-(4-ethynyl-2-fluorophenylamino)-6,8-dimethylpyrido[2,3-d]pyrimidine-4,7(3H,8H)-dione]	0.005 to 0.015
Cn1c(=O)c(F)c(Nc2ccc(I)cc2F)c2c(=O)n(C[C@H](O)CO)cnc21 [Example 19, (S)-3-(2,3-Dihydroxypropyl)-6-fluoro-5-(2-fluoro-4-iodophenylamino)-8-methylpyrido[2,3-d]pyrimidine-4,7(3H,8H)-dione]	≤ 0.005
CC(O)Cn1cnc2c(c(Nc3ccc(I)cc3F)c(Cl)c(=O)n2C)c1=O (centres unmarked) [Example 40, 6-Chloro-5-(2-fluoro-4-iodophenylamino)-3-(2-hydroxypropyl)-8-methylpyrido[2,3-d]pyrimidine-4,7(3H,8H)-dione]	0.005 to 0.015
Cc1c(Nc2ccc(Br)cc2F)c2c(=O)n(C[C@H](O)CO)cnc2n(C)c1=O [Example 9, (S)-5-(4-Bromo-2-fluorophenylamino)-3-(2,3-dihydroxypropyl)-6,8-dimethylpyrido[2,3-d]pyrimidine-4,7(3H,8H)-dione]	≥ 0.016
Cn1c(=O)c(Cl)c(Nc2ccc(I)cc2F)c2c(=O)n(CCO)cnc21 [Example 30, 6-Chloro-5-(2-fluoro-4-iodophenylamino)-3-(2-hydroxyethyl)-8-methylpyrido[2,3-d]pyrimidine-4,7(3H,8H)-dione]	≤ 0.005
Cc1c(Nc2ccc(I)cc2F)c2c(=O)n(CCO)cnc2n(C)c1=O [Example 14, 5-(2-Fluoro-4-iodophenylamino)-3-(2-hydroxyethyl)-6,8-dimethylpyrido[2,3-d]pyrimidine-4,7(3H,8H)-dione]	≤ 0.005
Cn1c(=O)c(F)c(Nc2ccc(I)cc2F)c2c(=O)n(OC[C@H](O)CO)cnc21 [Example 28, (R)-3-(2,3-Dihydroxypropoxy)-6-fluoro-5-(2-fluoro-4-iodophenylamino)-8-methylpyrido[2,3-d]pyrimidine-4,7(3H,8H)-dione]	≤ 0.005
C#Cc1ccc(Nc2c(F)c(=O)n(C)c3ncn(C[C@H](O)CO)c(=O)c23)c(F)c1 [Example 21, (S)-3-(2,3-Dihydroxypropyl)-5-(4-ethynyl-2-fluorophenylamino)-6-fluoro-8-methylpyrido[2,3-d]pyrimidine-4,7(3H,8H)-dione]	0.005 to 0.015

Other lines, results leading:

IC50 [µM]	Structure (SMILES)
≥ 0.016	CC(O)Cn1cnc2c(c(Nc3ccc(I)cc3F)cc(=O)n2C)c1=O (centres unmarked) [Example 38, 5-(2-Fluoro-4-iodophenylamino)-3-(2-hydroxypropyl)-8-methylpyrido[2,3-d]pyrimidine-4,7(3H,8H)-dione]
0.005 to 0.015	C#Cc1ccc(Nc2c(C)c(=O)n(C)c3ncn(C[C@@H](O)CO)c(=O)c23)c(F)c1 [Example 16, (R)-3-(2,3-Dihydroxypropyl)-5-(4-ethynyl-2-fluorophenylamino)-6,8-dimethylpyrido[2,3-d]pyrimidine-4,7(3H,8H)-dione]
≤ 0.005	Cn1c(=O)c(Cl)c(Nc2ccc(I)cc2F)c2c(=O)n(CCCO)cnc21 [Example 32, 6-Chloro-5-(2-fluoro-4-iodophenylamino)-3-(3-hydroxypropyl)-8-methylpyrido[2,3-d]pyrimidine-4,7(3H,8H)-dione]
≥ 0.016	Cn1c(=O)c(F)c(Nc2ccc(NS(C)(=O)=O)cc2F)c2c(=O)n(C[C@@H](O)CO)cnc21 [Example 23, (R)—N-(4-(3-(2,3-Dihydroxypropyl)-6-fluoro-8-methyl-4,7-dioxo-3,4,7,8-tetrahydropyrido[2,3-d]pyrimidin-5-ylamino)-3-fluorophenyl)methanesulfonamide]
≥ 0.016	Cn1c(=O)c(Cl)c(Nc2ccc(Br)cc2Cl)c2c(=O)n(CCCO)cnc21 [Example 36, 5-(4-Bromo-2-chlorophenylamino)-6-chloro-3-(3-hydroxypropyl)-8-methylpyrido[2,3-d]pyrimidine-4,7(3H,8H)-dione]
≥ 0.016	Cn1c(=O)cc(Nc2ccc(Br)cc2F)c2c(=O)n(CCCO)cnc21 [Example 33, 5-(4-Bromo-2-fluorophenylamino)-3-(3-hydroxypropyl)-8-methylpyrido[2,3-d]pyrimidine-4,7(3H,8H)-dione]
≥ 0.016	Cc1c(Nc2ccc(Br)cc2F)c2c(=O)n(C[C@@H](O)CO)cnc2n(C)c1=O [Example 10, (R)-5-(4-Bromo-2-fluorophenylamino)-3-(2,3-dihydroxypropyl)-6,8-dimethylpyrido[2,3-d]pyrimidine-4,7(3H,8H)-dione]
≤ 0.005	C#Cc1ccc(Nc2c(F)c(=O)n(C)c3ncn(C[C@@H](O)CO)c(=O)c23)c(F)c1 [Example 22, (R)-3-(2,3-dihydroxypropyl)-5-(4-ethynyl-2-fluorophenylamino)-6-fluoro-8-methylpyrido[2,3-d]pyrimidine-4,7(3H,8H)-dione]
≥ 0.016	Cn1c(=O)cc(Nc2ccc(Br)cc2Cl)c2c(=O)n(CCCO)cnc21 [Example 35, 5-(4-Bromo-2-chlorophenylamino)-3-(3-hydroxypropyl)-8-methylpyrido[2,3-d]pyrimidine-4,7(3H,8H)-dione]
0.005 to 0.015	Cn1c(=O)c(Cl)c(Nc2ccc(Br)cc2F)c2c(=O)n(C[C@@H](O)CO)cnc21 [Example 29, (R)-5-(4-Bromo-2-fluorophenylamino)-6-chloro-3-(2,3-dihydroxypropyl)-8-methylpyrido[2,3-d]pyrimidine-4,7(3H,8H)-dione]
≤ 0.005	Cn1c(=O)c(F)c(Nc2ccc(I)cc2F)c2c(=O)n(C(CO)CO)cnc21 [Example 25, 3-(1,3-Dihydroxypropan-2-yl)-6-fluoro-5-(2-fluoro-4-iodophenylamino)-8-methylpyrido[2,3-d]pyrimidine-4,7(3H,8H)-dione]
≥ 0.016	CN(C)CCn1cnc2c(c(Nc3ccc(I)cc3F)cc(=O)n2C)c1=O [Example 37, 3-(2-(Dimethylamino)ethyl)-5-(2-fluoro-4-iodophenylamino)-8-methylpyrido[2,3-d]pyrimidine-4,7(3H,8H)-dione]
